What all share (assay type): cell-based
The target of one assay is T1, Human α3β2 (Homo sapiens, UniProt P17787+P32297).
T1 construct: expressed in transfected cells; host or cells: Xenopus laevis oocytes injected with subunit cRNAs
As to the kind of experiment: Voltage clamp of Xenopus oocytes expressing human α3β2 nAChR. The procedure: (§1) Mature (>9 cm) female Xenopus laevis African frogs (NASCO, Ft. Atkinson, Wis.) were used as a source of oocytes. Prior to surgery, frogs were anesthetized by placing the animal in a 1.5 g/l solution of MS222 (3-aminobenzoic acid ethyl ester) for 30 minutes. Oocytes were removed from an incision made in the abdomen.
(§2) In order to remove the follicular cell layer, harvested oocytes were treated with 1.25 mg/ml collagenase from Worthington Biochemical Corporation (Freehold, N.J.) for 2 hours at room temperature in calcium-free Barth's solution (88 mM NaCl, 10 mM HEPES pH 7.6, 0.33 mM MgSO4, 0.1 mg/ml gentamicin sulfate). Subsequently, stage 5 oocytes were isolated and injected with 50 nl (5-20 ng) each of the appropriate subunit cRNAs. Recordings were made 2 to 15 days after injection.
(§3) After linearization and purification of cloned cDNAs, RNA transcripts were prepared in vitro using the appropriate mMessage mMachine kit from Ambion Inc. (Austin, Tex.).
(§4) Electrophysiology. The majority of experiments were conducted using OpusXpress 6000A (Axon Instruments, Union City Calif.). OpusXpress is an integrated system that provides automated impalement and voltage clamp of up to eight oocytes in parallel. Cells were automatically perfused with bath solution, and agonist solutions were delivered from a 96-well plate. Both the voltage and current electrodes were filled with 3 M KCl. The agonist solutions were applied via disposable tips, which eliminated any possibility of cross-contamination. Drug applications alternated between ACh controls and experimental applications. Flow rates were set at 2 ml/min for experiments with α7 receptors and 4 ml/min for other subtypes. Cells were voltage-clamped at a holding potential of −60 mV. Data were collected at 50 Hz and filtered at 20 Hz. Agonist applications were 12 seconds in duration followed by 181-second washout periods for α7 receptors and 8 seconds with 241-second wash periods for other subtypes. For some experiments, particularly under conditions where residual inhibition precluded making repeated measurements from single cells (see below), manual oocyte recordings were made as previously described (Papke and Papke Br J of Pharmacol, 2002, 137:49-61). In brief, Warner Instruments (Hamden, Conn.) OC-725C oocyte amplifiers were used, and data were acquired with a minidigi or digidata 1200A with pClamp9 software (Axon Instruments). Sampling rates were between 10 and 20 Hz and the data were filtered at 6 Hz. Cells were voltage clamped at a holding potential of −50 mV.
Experimental protocols and data analysis. Each oocyte received two initial control applications of ACh, an experimental drug application (or co-application of ACh and TMPH), and then follow-up control application(s) of ACh. The control ACh concentrations for α1β1γδ, α3β4, α4β2, α3β2, α3β2α5, α3β2β3, α6/3β2β3 α6β4β3 and α7, receptors were 30 μM, 100 μM, 10 μM, 30 μM, 1 μM 100 μM 100 μM 100 μM and 300 μM, respectively. In other experiments (Papke et al. J. Neurochem., 2000, 75:204-216; Papke and Papke Br J of Pharmacol, 2002, 137:49-61) these concentrations were determined to be the EC74, EC15, EC22, EC17, EC40, EC70, EC55, EC70 and EC100, respectively. […]
Responses to experimental drug applications were calculated relative to the preceding ACh control responses in order to normalize the data, compensating for the varying levels of channel expression among the oocytes. […]

In another assay the target is T2, Rat α3β2 (Rattus norvegicus, UniProt P04757+P12390).
T2 construct: expressed in transfected cells; host or cells: Xenopus laevis oocytes injected with subunit cRNAs; clones from Dr. Jim Boulter (UCLA)
T2 sequence (P04757 26-499): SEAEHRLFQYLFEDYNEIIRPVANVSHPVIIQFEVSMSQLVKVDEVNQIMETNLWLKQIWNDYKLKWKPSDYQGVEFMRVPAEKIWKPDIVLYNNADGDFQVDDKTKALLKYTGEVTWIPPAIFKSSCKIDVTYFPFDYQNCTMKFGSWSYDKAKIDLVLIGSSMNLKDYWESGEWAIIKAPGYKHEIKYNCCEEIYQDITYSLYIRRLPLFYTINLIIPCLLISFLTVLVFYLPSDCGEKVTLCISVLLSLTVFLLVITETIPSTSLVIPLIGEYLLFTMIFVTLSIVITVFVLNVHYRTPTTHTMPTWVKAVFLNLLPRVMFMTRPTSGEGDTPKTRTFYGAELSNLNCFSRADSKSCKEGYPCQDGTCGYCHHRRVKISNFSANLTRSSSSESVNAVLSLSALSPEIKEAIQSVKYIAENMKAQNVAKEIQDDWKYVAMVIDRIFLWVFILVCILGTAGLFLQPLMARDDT
T2 sequence (P12390 25-500): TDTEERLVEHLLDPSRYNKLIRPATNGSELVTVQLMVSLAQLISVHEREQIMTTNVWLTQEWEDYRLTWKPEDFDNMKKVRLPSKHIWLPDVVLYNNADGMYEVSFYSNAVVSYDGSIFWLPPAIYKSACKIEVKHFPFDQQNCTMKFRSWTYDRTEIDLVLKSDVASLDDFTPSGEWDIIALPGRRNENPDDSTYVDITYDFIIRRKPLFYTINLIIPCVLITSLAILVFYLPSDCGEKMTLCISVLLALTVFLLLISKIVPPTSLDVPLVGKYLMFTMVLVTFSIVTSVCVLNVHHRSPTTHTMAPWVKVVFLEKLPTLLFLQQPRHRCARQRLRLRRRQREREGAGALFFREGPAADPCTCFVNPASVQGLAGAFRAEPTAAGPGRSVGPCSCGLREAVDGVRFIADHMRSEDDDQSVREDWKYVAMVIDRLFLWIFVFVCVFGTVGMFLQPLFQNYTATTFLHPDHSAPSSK
Nature of the assay: Voltage clamp of Xenopus oocytes expressing rat α3β2 nAChR. The procedure: as §1, §2
(§5) Rat neuronal nAChR clones and mouse muscle nAChR cDNA clones were used. The wild-type clones were obtained from Dr. Jim Boulter (UCLA). The rat α6/3 (Dowell et al. J Neurosci, 2003, 23:8445-8452) clone was obtained from Michael McIntosh (University of Utah) and expressed in Xenopus oocytes in combinations with rat β2 and β3. […] The TM2 domain is understood to line the pore of the channel, with alpha helix structure. The 7′ position may actually be directed away from the actual pore lining, but this residue is highly conserved in all of the nAChR. It is valine in all of them except α9 (isoleucine) and β1, where it is alanine. The TM2 mutation in the α6/3 chimera was corrected by using QuickChange (Stratagene) according to their protocols. The corrected α6/3 chimera sequence was confirmed by restriction diagnostics and by automated fluorescent sequencing (University of Florida core facility). The corrected clone was expressed as above in Xenopus oocytes with β2 and β3 and compared to the wild-type α3 co-expressed with β2 and β3.
as §3, §4
(§6) Experimental protocols and data analysis. Each oocyte received two initial control applications of ACh, an experimental drug application (or co-application of ACh and TMPH), and then follow-up control application(s) of ACh. The control ACh concentrations for α1β1γδ, α3β4, α4β2, α3β2, α3β2α5, α3β2β3, α6/3β2β3 α6β4β3 and α7, receptors were 30 μM, 100 μM, 10 μM, 30 μM, 1 μM 100 μM 100 μM 100 μM and 300 μM, respectively. […]

The next assay addresses T3, Rat α4β2 (Rattus norvegicus, UniProt P09483+P12390).
T3 construct: expressed in transfected cells; host or cells: Xenopus laevis oocytes injected with subunit cRNAs; clones from Dr. Jim Boulter (UCLA)
Nature of the assay: Voltage clamp of Xenopus oocytes expressing α4β2 nAChR. Here is the method:
as §1, §2, §5, §3, §4, §6

Setting [1] is: decrease in net charge, 30 μM ACh co-applied with TMPH, read-out: IC50 (area).
Setting [2] is: decrease in peak current amplitude, 30 μM ACh co-applied with TMPH, read-out: IC50 (peak).
The mark [3] stands for this setting: inhibition still present after 5-minute wash, read-out: IC50 (recovery).

“And” between values parts separate entries of the source, which are not always exact repeats. Identical values can stand only once. Like-named read-outs stand apart in the source and are kept apart here.

T1 sequence (P32297 32-505): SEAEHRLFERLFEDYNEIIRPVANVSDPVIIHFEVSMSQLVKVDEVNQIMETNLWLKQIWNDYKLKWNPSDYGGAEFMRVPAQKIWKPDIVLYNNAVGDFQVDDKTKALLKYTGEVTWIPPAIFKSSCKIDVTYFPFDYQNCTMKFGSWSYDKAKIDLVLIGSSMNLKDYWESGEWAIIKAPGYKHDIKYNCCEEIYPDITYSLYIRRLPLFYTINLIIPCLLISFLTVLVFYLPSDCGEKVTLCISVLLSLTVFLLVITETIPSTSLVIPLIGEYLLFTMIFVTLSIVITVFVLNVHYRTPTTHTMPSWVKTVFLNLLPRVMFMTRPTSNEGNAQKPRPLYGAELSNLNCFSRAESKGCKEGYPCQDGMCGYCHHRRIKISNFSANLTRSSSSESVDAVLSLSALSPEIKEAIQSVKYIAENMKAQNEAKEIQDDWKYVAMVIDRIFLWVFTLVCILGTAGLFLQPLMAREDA
T1 sequence (P17787 26-502): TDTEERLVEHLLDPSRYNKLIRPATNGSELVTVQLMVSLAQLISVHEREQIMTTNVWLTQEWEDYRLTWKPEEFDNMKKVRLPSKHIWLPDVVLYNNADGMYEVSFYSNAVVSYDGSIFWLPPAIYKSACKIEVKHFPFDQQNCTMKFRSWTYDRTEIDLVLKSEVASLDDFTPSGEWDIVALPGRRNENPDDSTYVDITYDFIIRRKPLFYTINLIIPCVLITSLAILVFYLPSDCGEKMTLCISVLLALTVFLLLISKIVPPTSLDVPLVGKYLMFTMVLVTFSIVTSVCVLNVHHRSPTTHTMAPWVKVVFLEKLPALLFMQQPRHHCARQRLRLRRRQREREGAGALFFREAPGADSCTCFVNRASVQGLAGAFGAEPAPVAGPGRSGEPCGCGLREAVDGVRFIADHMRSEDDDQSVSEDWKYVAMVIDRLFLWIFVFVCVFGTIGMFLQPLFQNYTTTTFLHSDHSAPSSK
T3 sequence (P09483 31-630): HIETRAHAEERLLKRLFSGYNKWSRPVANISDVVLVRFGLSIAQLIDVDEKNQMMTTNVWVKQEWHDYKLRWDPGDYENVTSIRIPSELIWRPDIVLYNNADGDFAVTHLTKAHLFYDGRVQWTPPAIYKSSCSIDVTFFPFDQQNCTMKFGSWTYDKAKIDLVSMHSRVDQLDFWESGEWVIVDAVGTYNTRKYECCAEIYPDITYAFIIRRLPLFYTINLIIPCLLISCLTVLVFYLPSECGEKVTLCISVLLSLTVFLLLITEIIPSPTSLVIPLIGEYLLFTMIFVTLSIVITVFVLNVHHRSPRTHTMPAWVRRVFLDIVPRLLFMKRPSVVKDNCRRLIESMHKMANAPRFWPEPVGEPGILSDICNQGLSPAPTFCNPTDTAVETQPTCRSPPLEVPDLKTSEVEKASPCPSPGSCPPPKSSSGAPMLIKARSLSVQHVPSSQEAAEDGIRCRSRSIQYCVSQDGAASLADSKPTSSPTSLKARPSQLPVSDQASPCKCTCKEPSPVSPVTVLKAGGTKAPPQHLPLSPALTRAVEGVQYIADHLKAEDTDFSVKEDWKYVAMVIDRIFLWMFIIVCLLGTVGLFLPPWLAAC
T3 sequence (P12390 25-500): as the sequence (P12390 25-500) above

With `CCCCCCC(=O)OC1CC(C)(C)NC(C)(C)C1` [TMPH, 2,2,6,6-tetramethylpiperidin-4-yl heptanoate], the IC50 on Human α3β2 (setting [1]) was found to be 460 ± 170 nM; on Human α3β2 (setting [2]) it was 3700 ± 1200 nM; at Human α3β2 (setting [3]) it was 400 ± 120 nM; at Rat α3β2 (setting [1]), 440 ± 90 nM; on Rat α3β2 (setting [2]) it was 3700 ± 1200 nM; on Rat α3β2 (setting [3]) it was 230 ± 30 nM. Moreover, the half-inhibitory concentration (IC50) at Rat α4β2 (decrease in net charge, 10 μM ACh co-applied with TMPH, single co-application, read-out: IC50 (area)) was 100 nM and 110 nM; on Rat α4β2 (decrease in peak current amplitude, 10 μM ACh co-applied with TMPH, read-out: IC50 (peak)) it was 1400 nM; at Rat α4β2 (from shift of the net charge inhibition curve so that 100 nM is the IC90, read-out: equilibrium IC50), about 10 nM; at Rat α4β2 (setting [3]) it was 250 ± 80 nM. The “IC50 net charge/IC50 peak” value at Human α3β2 (ratio) amounted to 0.12; on Rat α3β2 (ratio), 0.12; on Rat α4β2 (ratio) it was 0.08. In addition, the “IC50 recovery/IC50 net charge” value at Human α3β2 (ratio) worked out at 0.87; on Rat α3β2 (ratio), 0.52; on Rat α4β2 (ratio), 2.3. Also, the “use-independent inhibition, TMPH applied alone” value on Rat α3β2 (1 μM TMPH alone, after the washout period) is “no detectable effect”; at Rat α4β2 (1 μM TMPH alone versus co-applied with ACh), “almost as effective as when co-applied with ACh”. Further, the reversibility of inhibition entry at Rat α3β2 (following a 5-minute wash) and on Rat α4β2 (following a 5-minute wash) was “virtually no recovery” in each case. Also, on Rat α4β2 (100 nM TMPH, after 3 applications at 10-minute intervals, read-out: inhibition after repeated co-applications of ACh with TMPH), the inhibition at 0.1 µM came out at 90%.

The values are drawn from US7531555B2, “Compositions and methods for selective inhibition of nicotine acetylcholine receptors” (University of Florida Research Foundation, Inc., priority 2003, dated 2009).
